# According to patent US9222949B2, “Salvinorin immunoassay” (priority 2009, dated 2015):
# Experiments:
# [1] = test system: antisera generated to Immunogen I (hapten A-BTG); assay: competitive microtiter plate assay (ELISA) for salvinorin A and salvinorin B; assay type: binding, sheep
# [2] = in vivo; cited from earlier work
# [3] = Conjugate I, calibrator 0.16 ng/ml
# [4] = Conjugate I, calibrator 0.31 ng/ml
# [5] = Conjugate I, calibrator 0.63 ng/ml
# [6] = Conjugate I, calibrator 1.25 ng/ml
# [7] = Conjugate I, calibrator 2.50 ng/ml
# [8] = Conjugate I, calibrator 5.00 ng/ml
# [9] = Conjugate I, calibrator 10.00 ng/ml
# [10] = Conjugate II, calibrator 0.16 ng/ml
# [11] = Conjugate II, calibrator 0.31 ng/ml
# [12] = Conjugate II, calibrator 0.63 ng/ml
# [13] = Conjugate II, calibrator 1.25 ng/ml
# [14] = Conjugate II, calibrator 2.50 ng/ml
# [15] = Conjugate II, calibrator 5.00 ng/ml
# [16] = Conjugate II, calibrator 10.00 ng/ml
SMILES,% CR (percentage cross-reactivity based on 100% specificity to salvinorin A) ([1]; Conjugate I),IC50 (standard concentration which produces 50% B/Bo) ([1]; Conjugate I),"% B/B0 [1, 3]","% B/B0 [1, 4]","% B/B0 [1, 5]","% B/B0 [1, 6]","% B/B0 [1, 7]","% B/B0 [1, 8]","% B/B0 [1, 9]",% CR (percentage cross-reactivity based on 100% specificity to salvinorin A) ([1]; Conjugate II),IC50 (standard concentration which produces 50% B/Bo) ([1]; Conjugate II),"% B/B0 [1, 10]","% B/B0 [1, 11]","% B/B0 [1, 12]","% B/B0 [1, 13]","% B/B0 [1, 14]","% B/B0 [1, 15]","% B/B0 [1, 16]",action of duration [2]
COC(=O)C1CC(O)C(=O)C2C1(C)CCC1C(=O)OC(c3ccoc3)CC12C (stereo not shown) [Salvinorin B],9.52%,2.909 ng/mL,84%,74%,70%,63%,50%,43%,33%,12.00%,2.758 ng/mL,85%,78%,71%,61%,51%,43%,33%,
COC(=O)[C@@H]1C[C@H](OC(C)=O)C(=O)[C@H]2[C@@]1(C)CC[C@H]1C(=O)O[C@H](c3ccoc3)C[C@]21C [Salvinorin A],100%,0.277 ng/mL,62%,48%,36%,26%,18%,13%,9%,100%,0.331 ng/mL,64%,51%,39%,30%,20%,14%,9%,10 to 15 min
